{
  "source": "patent US20240188563A1",
  "about": "“CATHETER LOCK SOLUTIONS INCORPORATING NITRIC OXIDE RELEASING LIPOSOMES” (Becton, Dickinson and Company, priority 2022, published 2024)",
  "origin": "cited, not measured here",
  "system": "platelets",
  "conditions": "extracorporeal circuit",
  "data": [
    {"compound": "CC(=O)N[C@H](C(=O)O)C(C)(C)SN=O", "note": "[SNAP only, S-nitroso-N-acetyl penicillamine]", "values": [
      {"measurement": "Platelet count after 4 h (% of initial)", "result": "vs. 50% (SNAP only)"}
    ]}
  ]
}
